Four compounds from ChEMBL document CHEMBL4118173, “Discovery of benzimidazole derivatives as orally active renin inhibitors: Optimization of 3,5-disubstituted piperidine to improve pharmacokinetic profile” (Bioorg Med Chem, 2018) can be followed below.

As usually defined, the AUC is the area under the concentration-time curve, a measure of exposure. The Papp is the rate of passage across a membrane or cell layer, normalised by area and donor concentration. The logD is lipophilicity at a set pH, counting ionised and neutral species. By IC50 is commonly meant the concentration needed to halve the response being measured. What is called Tmax is the time at which the peak concentration occurs. As a reminder, the Cmax is the peak of the concentration-time curve. For orientation: bioavailability means dose-corrected exposure relative to a reference, in per cent.

SMILES strings stand for the structures. Active and inactive are the calls of the source. The rule behind the calls is not given here.

A short description of data set [1]: in vivo. The following applies: rat, iv, 0.1 mg/kg.
Data set [2] in a line: in vitro. The following applies: PAMPA, pH 7.4. In general terms: The PAMPA barrier holds no transporters, so it reflects passive diffusion.
Description: Permeability of the compound at pH 7.4 buffer after 3 hrs by PAMPA
Data set [3] is described as follows: physchem. The following applies: 1-octanol/aqueous buffer, pH 7.4.
Description: 1-octanol/aqueous buffer partition coefficient, log D of the compound at pH 7.4 by UV-vis/HPLC method
Data set [4] is filed under the species Rattus norvegicus. The following applies: in vivo, po, 1 mg/kg.
Data set [5] is described as follows: in vivo. The following applies: rat, iv.
Description: Clearance in rat at 0.1 mg/kg, iv or 1 mg/kg, po administered as cassette dose by LC-MS/MS analysis
Data set [6] concerns the target T1, Renin (Macaca mulatta, UniProt Q6DLW5).
T1 sequence (Q6DLW5 whole entry): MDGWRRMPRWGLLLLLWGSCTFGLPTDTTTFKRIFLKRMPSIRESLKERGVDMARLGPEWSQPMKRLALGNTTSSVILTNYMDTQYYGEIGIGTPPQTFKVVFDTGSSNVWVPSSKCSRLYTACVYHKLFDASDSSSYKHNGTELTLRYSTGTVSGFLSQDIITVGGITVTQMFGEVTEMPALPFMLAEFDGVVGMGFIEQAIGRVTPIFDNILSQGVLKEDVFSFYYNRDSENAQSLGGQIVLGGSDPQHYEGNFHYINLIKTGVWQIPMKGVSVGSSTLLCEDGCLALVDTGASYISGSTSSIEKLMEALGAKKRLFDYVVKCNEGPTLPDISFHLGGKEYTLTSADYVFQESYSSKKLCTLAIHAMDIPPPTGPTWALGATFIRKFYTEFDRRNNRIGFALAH
Description: Inhibition of renin in monkey plasma

The nature of data set [7]: Clearance in cynomolgus monkey at 0.1 mg/kg, iv or 1 mg/kg, po administered as cassette dose by LC-MS/MS analysis. The format is ADME, organism-based, Macaca fascicularis. The following applies: in vivo.
Data set [8] deals with Cynomolgus monkey. Kind of data set: In vivo inhibition of plasma renin in po dosed cynomolgus monkey measured at 4 and 24 hrs post dose by radioimmunoassay. The format is functional, organism-based. The following applies: Macaca fascicularis.
Data set [9] is described as follows: Tmax in cynomolgus monkey at 0.1 mg/kg, iv or 1 mg/kg, po administered as cassette dose by LC-MS/MS analysis. The following applies: in vivo. The format is ADME, organism-based, Macaca fascicularis.
Data set [10] in a line: Cmax in cynomolgus monkey at 0.1 mg/kg, iv or 1 mg/kg, po administered as cassette dose by LC-MS/MS analysis. The format is ADME, organism-based, Macaca fascicularis. The following applies: in vivo.
Data set [11] can be described thus: AUC in cynomolgus monkey at 0.1 mg/kg, iv administered as cassette dose by LC-MS/MS analysis. The following applies: in vivo. The format is ADME, organism-based, Macaca fascicularis.
A short description of data set [12]: in vivo. The following applies: rat, po, 1 mg/kg.
Data set [13] is described as follows: Oral bioavailability in cynomolgus monkey at 1 mg/kg administered as cassette dose by LC-MS/MS analysis. The format is ADME, organism-based, Macaca fascicularis. The following applies: in vivo.
In data set [14] the target is T2, Renin (Rattus norvegicus, UniProt P08424).
T2 sequence (P08424 whole entry): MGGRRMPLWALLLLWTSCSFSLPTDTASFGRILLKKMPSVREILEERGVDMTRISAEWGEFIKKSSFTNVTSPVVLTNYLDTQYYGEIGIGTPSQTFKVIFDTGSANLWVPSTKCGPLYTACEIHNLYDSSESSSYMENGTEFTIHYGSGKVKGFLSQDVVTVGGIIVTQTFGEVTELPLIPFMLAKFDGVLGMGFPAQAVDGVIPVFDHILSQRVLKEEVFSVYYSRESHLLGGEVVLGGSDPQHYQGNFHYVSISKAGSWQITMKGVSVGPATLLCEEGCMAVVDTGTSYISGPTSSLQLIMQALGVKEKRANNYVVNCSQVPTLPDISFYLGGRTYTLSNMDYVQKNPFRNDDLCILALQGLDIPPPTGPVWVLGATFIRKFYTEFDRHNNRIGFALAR
Description: Inhibition of renin in rat plasma

Data set [15] can be described thus: in vivo. The following applies: rat, po, 1 mg/kg. This is another data set of the same source.
Data set [16] can be described thus: AUC in cynomolgus monkey at 1 mg/kg, po administered as cassette dose by LC-MS/MS analysis. The format is ADME, organism-based, Macaca fascicularis. The following applies: in vivo.
In data set [17] the test system is Rattus norvegicus. Kind of data set: Metabolic stability in rat at 0.1 mg/kg, iv or 1 mg/kg, po administered as cassette dose by LC-MS/MS analysis. The following applies: in vivo. The format is ADME, organism-based.
Data set [18] has as its system Cynomolgus monkey. The following applies: Macaca fascicularis; Plasma; 15 mg/kg.
For data set [19], the system named is Cynomolgus monkey. The following applies: Macaca fascicularis; Plasma; 5 to 15 mg/kg.

Take `CCCCCCc1nc(C(C)(C)C)ncc1C(=O)N(CC(C)C)[C@@H]1CNC[C@H](C(=O)N2CCOCC2)C1`: the AUC came out at 42 ng·h/mL in [1] and 20.9 ng·h/mL in data set [4]. Further, in data set [2], the Papp at 3 h came to 43.5 ×10⁻⁶ cm/s. This compound also displayed a logD in data set [3] of 4.77.

For the compound `COCCCCn1c(C(=O)N(CC(C)C)[C@@H]2CNC[C@H](C(=O)N3CCOCC3)C2)nc2ccccc21`, the values for the clearance in data set [5] and in [7] were 25.9 mL/min/kg and 14.2 mL/min/kg, respectively. The AUC in data set [1] was determined as 68 ng·h/mL; in [11] it was 128 ng·h/mL; in data set [15], 92.2 ng·h/mL; in [16], 323 ng·h/mL. The IC50 in [6] came to 0.0015 µM; in data set [14], 0.31 µM. For the same compound, the inhibition entry in data set [8] is “Dose-dependent effect”. Besides, in [9], the Tmax came to 1.67 h. The same compound displayed a Cmax in [10] of 29.1 ng/mL. This compound also displayed a Papp at 3 h in data set [2] of 34.5 ×10⁻⁶ cm/s. The compound also registered a logD in data set [3] of 2.11. Moreover, the bioavailability was found to be 14% in data set [12] and 25% in [13].

For `COCCCNc1nc(C(C)(C)C)ncc1C(=O)N(CC(C)C)[C@@H]1CNC[C@H](C(=O)N2CCOCC2)C1`, the Stability entry in data set [17] is listed as “Stable”. In data set [5], this compound showed a clearance of 121 mL/min/kg. The AUC in [1] was found to be 14.1 ng·h/mL. The Papp at 3 h in data set [2] was determined as 39 ×10⁻⁶ cm/s. In data set [3], this compound displayed a logD of 2.99. This compound gave a bioavailability in [12] below 1%.

For `COCCCOc1cc(C[C@@H](C[C@H](N)[C@@H](O)C[C@H](C(=O)NCC(C)(C)C(N)=O)C(C)C)C(C)C)ccc1OC`, the inhibition result in data set [18] and in [19] was “Active” throughout. This compound also showed a clearance in data set [7] of 3.37 mL/min/kg. Besides, the Tmax in data set [9] was determined as 3.33 h. This compound came in with a Cmax in [10] of 3.5 ng/mL. Further, the AUC in data set [11] came to 501 ng·h/mL; in [16], 25.9 ng·h/mL. In data set [13], the bioavailability was 0.6%.
